Biological target: T1, mTOR (Homo sapiens, UniProt P42345)
T1 construct: purchased Invitrogen PR8683A
Assay: mTOR HTR-FRET assay
Assay type: biochemical
Conditions: read-out: Act. Level (IC50 in mTor HTR-FRET assay)
Protocol: The following is an example of an assay that can be used to determine the mTOR inhibitory activity of a test compound. Heteroaryl Compounds were dissolved in DMSO and prepared as 10 mM stocks and diluted appropriately for the experiments. Reagents were prepared as follows:
“Simple TOR buffer” (used to dilute high glycerol TOR fraction): 10 mM Tris pH 7.4, 100 mM NaCl, 0.1% Tween-20, 1 mM DTT. Invitrogen mTOR (cat #PR8683A) was diluted in this buffer to an assay concentration of 0.200 μg/mL.
To 20 μL of the Simple mTor buffer is added 0.5 μL of test compound in DMSO. To initiate the reaction 5 μL of ATP/Substrate solution was added to 20 μL of the Simple TOR buffer solution (control) and to the compound solution prepared above.

T1 sequence (P42345 1360-2549 limits assumed): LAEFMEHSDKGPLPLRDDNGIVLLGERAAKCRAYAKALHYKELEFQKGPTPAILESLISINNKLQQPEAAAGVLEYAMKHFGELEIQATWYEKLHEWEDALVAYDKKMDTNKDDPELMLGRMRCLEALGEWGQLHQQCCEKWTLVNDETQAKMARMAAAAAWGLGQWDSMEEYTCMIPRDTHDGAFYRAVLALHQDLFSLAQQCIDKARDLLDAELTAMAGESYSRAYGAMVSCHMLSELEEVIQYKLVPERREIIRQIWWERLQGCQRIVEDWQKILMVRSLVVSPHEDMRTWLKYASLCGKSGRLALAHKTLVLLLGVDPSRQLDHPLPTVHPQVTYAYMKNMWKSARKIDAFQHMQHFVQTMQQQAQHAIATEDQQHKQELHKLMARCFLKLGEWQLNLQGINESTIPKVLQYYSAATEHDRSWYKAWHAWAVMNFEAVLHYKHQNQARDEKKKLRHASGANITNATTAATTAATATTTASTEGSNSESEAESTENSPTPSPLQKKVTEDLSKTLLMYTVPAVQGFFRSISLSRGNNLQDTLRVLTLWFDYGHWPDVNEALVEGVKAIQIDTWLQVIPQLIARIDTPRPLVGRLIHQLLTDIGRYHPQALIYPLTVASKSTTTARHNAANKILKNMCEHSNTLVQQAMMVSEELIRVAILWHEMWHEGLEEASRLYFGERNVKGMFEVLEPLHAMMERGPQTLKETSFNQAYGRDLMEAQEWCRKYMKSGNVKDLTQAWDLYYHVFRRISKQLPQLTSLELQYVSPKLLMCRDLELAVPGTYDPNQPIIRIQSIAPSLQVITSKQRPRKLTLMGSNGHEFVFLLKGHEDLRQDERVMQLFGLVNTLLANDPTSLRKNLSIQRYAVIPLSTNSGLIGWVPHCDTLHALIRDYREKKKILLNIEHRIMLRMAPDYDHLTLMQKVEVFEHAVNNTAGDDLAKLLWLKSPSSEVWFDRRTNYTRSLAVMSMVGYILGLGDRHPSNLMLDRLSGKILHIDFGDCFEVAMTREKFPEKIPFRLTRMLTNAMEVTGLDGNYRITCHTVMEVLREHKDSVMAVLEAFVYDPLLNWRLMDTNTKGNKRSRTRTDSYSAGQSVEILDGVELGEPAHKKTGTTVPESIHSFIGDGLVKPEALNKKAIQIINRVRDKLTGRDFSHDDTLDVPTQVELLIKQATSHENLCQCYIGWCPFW

Compared with C[C@H]1Nc2ncc(-c3ccc(C(C)(C)O)nc3)nc2N(CCC2CCOCC2)C1=O [Example 266, (R)-7-(6-(2-hydroxypropan-2-yl)pyridin-3-yl)-3-methyl-1-(2-(tetrahydro-2H-pyran-4-yl)ethyl)-3,4-dihydropyrazino[2,3-b]pyrazin-2(1H)-one], CC(C)(O)c1ccc(-c2cnc3c(n2)N(CCC2CCCOC2)CC(=O)N3)cn1 (centres unmarked) [Example 109, 6-(6-(2-hydroxypropan-2-yl)pyridin-3-yl)-4-(2-(tetrahydro-2H-pyran-3-yl)ethyl)-3,4-dihydropyrazino[2,3-b]pyrazin-2(1H)-one] is lower in IC50: 500 to 1000 nM for the first, 0.005 to 250 nM for the second.

CO[C@@H]1CC[C@H](N2CC(=O)Nc3ncc(-c4ccc(C(C)(C)O)nc4)nc32)C1 [Example 52, 6-(6-(2-hydroxypropan-2-yl)pyridin-3-yl)-4-((1S,3R)-3-methoxycyclopentyl)-3,4-dihydropyrazino[2,3-b]pyrazin-2(1H)-one] and CO[C@H]1CC[C@@H](N2CC(=O)Nc3ncc(-c4ccc(C(C)(C)O)nc4)nc32)C1 [Example 51, 6-(6-(2-hydroxypropan-2-yl)pyridin-3-yl)-4-((1R,3S)-3-methoxycyclopentyl)-3,4-dihydropyrazino[2,3-b]pyrazin-2(1H)-one] fall in the same range of IC50: 0.005 to 250 nM for the first, 0.005 to 250 nM for the second.

CCN1CC(=O)Nc2ncc(-c3cc(F)c(-c4nc[nH]n4)cc3C)nc21 [Example 26, 4-ethyl-6-(5-fluoro-2-methyl-4-(1H-1,2,4-triazol-3-yl)phenyl)-3,4-dihydropyrazino[2,3-b]pyrazin-2(1H)-one] and COCCN1C(=O)CNc2ncc(-c3cc(F)c(-c4nc[nH]n4)cc3C)nc21 [Example 175, 7-(5-fluoro-2-methyl-4-(1H-1,2,4-triazol-3-yl)phenyl)-1-(2-methoxyethyl)-3,4-dihydropyrazino[2,3-b]pyrazin-2(1H)-one] fall in the same range of IC50: 0.005 to 250 nM for the first, 0.005 to 250 nM for the second.

CC(C)(O)c1ccc(-c2cnc3c(n2)N(C[C@@H]2CCCO2)CC(=O)N3)cn1 [Example 115, (S)-6-(6-(2-hydroxypropan-2-yl)pyridin-3-yl)-4-((tetrahydrofuran-2-yl)methyl)-3,4-dihydropyrazino[2,3-b]pyrazin-2(1H)-one] and CC(C)(O)c1ccc(-c2cnc3c(n2)N(C2CCNCC2)CC(=O)N3)cn1 [Example 108, 6-(6-(2-hydroxypropan-2-yl)pyridin-3-yl)-4-(piperidin-4-yl)-3,4-dihydropyrazino[2,3-b]pyrazin-2(1H)-one] fall in the same range of IC50: 1000 to 10000 nM for the first, 1000 to 10000 nM for the second.

Cc1nc(-c2nnc[nH]2)ccc1-c1cnc2c(n1)N(CC1CCCC1)CC(=O)N2 [Example 99, 4-(cyclopentylmethyl)-6-(2-methyl-6-(4H-1,2,4-triazol-3-yl)pyridin-3-yl)-3,4-dihydropyrazino[2,3-b]pyrazin-2(1H)-one] and CO[C@H]1CC[C@@H](CN2CC(=O)Nc3ncc(-c4ccc(-c5nnc[nH]5)nc4C)nc32)C1 [Example 46, 4-(((1R,3S)-3-methoxycyclopentyl)methyl)-6-(2-methyl-6-(4H-1,2,4-triazol-3-yl)pyridin-3-yl)-3,4-dihydropyrazino[2,3-b]pyrazin-2(1H)-one] fall in the same range of IC50: 0.005 to 250 nM for the first, 0.005 to 250 nM for the second.

First: CO[C@H]1CC[C@H](N2C(=O)CNc3ncc(-c4ccc(-c5nnc[nH]5)nc4C)nc32)C1 [Example 229, 1-((1S,3S)-3-methoxycyclopentyl)-7-(2-methyl-6-(4H-1,2,4-triazol-3-yl)pyridin-3-yl)-3,4-dihydropyrazino[2,3-b]pyrazin-2(1H)-one]
Second: CO[C@H]1CC[C@@H](N2CC(=O)Nc3ncc(-c4ccc(C#N)nc4C)nc32)CC1 [Example 94, 5-(8-(cis-4-methoxycyclohexyl)-6-oxo-5,6,7,8-tetrahydropyrazino[2,3-b]pyrazin-2-yl)-6-methylpicolinonitrile]
The IC50 of the first is lower: 0.005 to 250 nM for the first, 1000 to 10000 nM for the second.

COCCN1C(=O)CNc2ncc(-c3cnc(-c4nc[nH]n4)cc3C)nc21 [Example 240, 1-(2-methoxyethyl)-7-(4-methyl-6-(1H-1,2,4-triazol-3-yl)pyridin-3-yl)-3,4-dihydropyrazino[2,3-b]pyrazin-2(1H)-one] and CO[C@H]1CC[C@H](CN2C(=O)CNc3ncc(-c4cnc(-c5nc[nH]n5)cc4C)nc32)CC1 [Example 204, 1-((trans-4-methoxycyclohexyl)methyl)-7-(4-methyl-6-(1H-1,2,4-triazol-3-yl)pyridin-3-yl)-3,4-dihydropyrazino[2,3-b]pyrazin-2(1H)-one] fall in the same range of IC50: 0.005 to 250 nM for the first, 0.005 to 250 nM for the second.

O=C1CNc2ncc(-c3c[nH]c4ncccc34)nc2N1CCC1CCOCC1 [Example 152, 7-(1H-pyrrolo[2,3-b]pyridin-3-yl)-1-(2-(tetrahydro-2H-pyran-4-yl)ethyl)-3,4-dihydropyrazino[2,3-b]pyrazin-2(1H)-one] and O=C1CNc2ncc(-c3ccc4cn[nH]c4c3)nc2N1CCC1CCOCC1 [Example 212, 7-(1H-indazol-6-yl)-1-(2-(tetrahydro-2H-pyran-4-yl)ethyl)-3,4-dihydropyrazino[2,3-b]pyrazin-2(1H)-one] fall in the same range of IC50: 0.005 to 250 nM for the first, 0.005 to 250 nM for the second.

Cc1cc(-c2nnc[nH]2)ccc1-c1cnc2c(n1)N1CCNCC1C(=O)N2 (centres unmarked) [Example 97, 9-(4-(4H-1,2,4-triazol-3-yl)-2-methylphenyl)-6,11,4a-trihydropiperazino[1,2-e]pyrazino[2,3-b]pyrazin-5-one] and Cc1cc(-c2nnc[nH]2)ccc1-c1cnc2c(n1)N1CCCC1C(=O)N2 (centres unmarked) [Example 140, 8-(4-(4H-1,2,4-triazol-3-yl)-2-methylphenyl)-5,10,3a-trihydropyrazino[2,3-b]pyrrolidino[1,2-e]pyrazin-4-one] fall in the same range of IC50: 0.005 to 250 nM for the first, 0.005 to 250 nM for the second.

Compared with NC(=O)c1cccc(-c2cnc3c(n2)N(CCC2CCOCC2)C(=O)CN3)c1 [Example 205, 3-(7-oxo-8-(2-(tetrahydro-2H-pyran-4-yl)ethyl)-5,6,7,8-tetrahydropyrazino[2,3-b]pyrazin-2-yl)benzamide], NC(=O)c1ccc(-c2cnc3c(n2)N(CCC2CCOCC2)C(=O)CN3)cc1 [Example 222, 4-(7-oxo-8-(2-(tetrahydro-2H-pyran-4-yl)ethyl)-5,6,7,8-tetrahydropyrazino[2,3-b]pyrazin-2-yl)benzamide] is lower in IC50: 1000 to 10000 nM for the first, 0.005 to 250 nM for the second. The second is the more potent here.

CNc1nc2c(C)cc(-c3cnc4c(n3)N(CCOC)C(=O)CN4)cc2[nH]1 [Example 237, 1-(2-methoxyethyl)-7-(4-methyl-2-(methylamino)-1H-benzo[d]imidazol-6-yl)-3,4-dihydropyrazino[2,3-b]pyrazin-2(1H)-one] and CNc1nc2c(C)cc(-c3cnc4c(n3)N(CC3CCOCC3)C(=O)CN4)cc2[nH]1 [Example 263, 7-(4-methyl-2-(methylamino)-1H-benzo[d]imidazol-6-yl)-1-((tetrahydro-2H-pyran-4-yl)methyl)-3,4-dihydropyrazino[2,3-b]pyrazin-2(1H)-one] fall in the same range of IC50: 0.005 to 250 nM for the first, 0.005 to 250 nM for the second.

First: Cc1c(-c2cnc3c(n2)N(CCC2CCOCC2)CC(=O)N3)ccc(-c2nnc[nH]2)c1F [Example 48, 6-(3-fluoro-2-methyl-4-(4H-1,2,4-triazol-3-yl)phenyl)-4-(2-(tetrahydro-2H-pyran-4-yl)ethyl)-3,4-dihydropyrazino[2,3-b]pyrazin-2(1H)-one]
Second: O=C1CN(CCC2CCOCC2)c2nc(-c3cccc(-c4ncn[nH]4)c3)cnc2N1 [Example 31, 6-(3-(1H-1,2,4-triazol-5-yl)phenyl)-4-(2-(tetrahydro-2H-pyran-4-yl)ethyl)-3,4-dihydropyrazino[2,3-b]pyrazin-2(1H)-one]
The IC50 of the first is lower: 0.005 to 250 nM for the first, 1000 to 10000 nM for the second. The first is the more potent here.

First: CCN1C(=O)CNc2ncc(-c3cccc4[nH]ncc34)nc21 [Example 194, 1-ethyl-7-(1H-indazol-4-yl)-3,4-dihydropyrazino[2,3-b]pyrazin-2(1H)-one]
Second: CCN1C(=O)CNc2ncc(-c3cnc4[nH]ccc4c3)nc21 [Example 193, 1-ethyl-7-(1H-pyrrolo[2,3-b]pyridin-5-yl)-3,4-dihydropyrazino[2,3-b]pyrazin-2(1H)-one]
The IC50 of the first is higher: 1000 to 10000 nM for the first, 250 to 500 nM for the second. The second is the more potent here.

O=C1CNc2ncc(-c3ccc(-c4nc[nH]n4)nc3)nc2N1C[C@H]1CC[C@H](O)CC1 [Example 159, 7-(6-(1H-1,2,4-triazol-3-yl)pyridin-3-yl)-1-((trans-4-hydroxycyclohexyl)methyl)-3,4-dihydropyrazino[2,3-b]pyrazin-2(1H)-one] and O=C1CN(C2CCOCC2)c2nc(-c3ccc(-c4nc[nH]n4)nc3)cnc2N1 [Example 21, 6-(6-(1H-1,2,4-triazol-3-yl)pyridin-3-yl)-4-(tetrahydro-2H-pyran-4-yl)-3,4-dihydropyrazino[2,3-b]pyrazin-2(1H)-one] fall in the same range of IC50: 0.005 to 250 nM for the first, 0.005 to 250 nM for the second.

Cc1cc(-c2nnc[nH]2)ccc1-c1cnc2c(n1)NC1(CC1)C(=O)N2 [Example 66, 7′-(2-methyl-4-(4H-1,2,4-triazol-3-yl)phenyl)-1′H-spiro[cyclopropane-1,2′-pyrazino[2,3-b]pyrazin]-3′(4′H)-one] and Cc1cc(-c2nnc[nH]2)ccc1-c1cnc2c(n1)N1CCOCC1C(=O)N2 (centres unmarked) [Example 138, 9-(4-(4H-1,2,4-triazol-3-yl)-2-methylphenyl)-6,11,4a-trihydromorpholino[4,3-e]pyrazino[2,3-b]pyrazin-5-one] fall in the same range of IC50: 0.005 to 250 nM for the first, 0.005 to 250 nM for the second.

Cc1nc(C(C)(C)O)ccc1-c1cnc2c(n1)N(CC1CCOCC1)CC(=O)N2 [Example 81, 6-(6-(2-hydroxypropan-2-yl)-2-methylpyridin-3-yl)-4-((tetrahydro-2H-pyran-4-yl)methyl)-3,4-dihydropyrazino[2,3-b]pyrazin-2(1H)-one] and CO[C@H]1CC[C@H](N2CC(=O)Nc3ncc(-c4ccc(C(C)(C)O)cc4)nc32)CC1 [Example 86, 6-(4-(2-hydroxypropan-2-yl)phenyl)-4-(trans-4-methoxycyclohexyl)-3,4-dihydropyrazino[2,3-b]pyrazin-2(1H)-one] fall in the same range of IC50: 0.005 to 250 nM for the first, 0.005 to 250 nM for the second.

Source: US11292796B2 (SIGNAL PHARMACEUTICALS, LLC, priority 2008, dated 2022)
